Target: Rho-associated protein kinase 2 (Homo sapiens, UniProt O75116)
Experiment: In Vitro Assay: The effectiveness of compounds of the present invention as ROCK inhibitors can be determined in a 30 μL assay containing 20 mM HEPES, pH 7.5, 20 mM MgCl2, 0.015% Brij-35, 4 mM DTT, 5 μM ATP and 1.5 μM peptide substrate (FITC-AHA-[…]-OH). Compounds were dissolved in DMSO so that the final concentration of DMSO was <2%, and the reaction was initiated with Rho kinase variants. After incubation, the reaction was terminated by the addition of EDTA and the phosphorylated and non-phosphorylated peptides separated using a LABCHIP® 3000 Reader (Caliper Life Sciences).

Rho-associated protein kinase 2, sequence (O75116 whole entry, looked up, change not shown): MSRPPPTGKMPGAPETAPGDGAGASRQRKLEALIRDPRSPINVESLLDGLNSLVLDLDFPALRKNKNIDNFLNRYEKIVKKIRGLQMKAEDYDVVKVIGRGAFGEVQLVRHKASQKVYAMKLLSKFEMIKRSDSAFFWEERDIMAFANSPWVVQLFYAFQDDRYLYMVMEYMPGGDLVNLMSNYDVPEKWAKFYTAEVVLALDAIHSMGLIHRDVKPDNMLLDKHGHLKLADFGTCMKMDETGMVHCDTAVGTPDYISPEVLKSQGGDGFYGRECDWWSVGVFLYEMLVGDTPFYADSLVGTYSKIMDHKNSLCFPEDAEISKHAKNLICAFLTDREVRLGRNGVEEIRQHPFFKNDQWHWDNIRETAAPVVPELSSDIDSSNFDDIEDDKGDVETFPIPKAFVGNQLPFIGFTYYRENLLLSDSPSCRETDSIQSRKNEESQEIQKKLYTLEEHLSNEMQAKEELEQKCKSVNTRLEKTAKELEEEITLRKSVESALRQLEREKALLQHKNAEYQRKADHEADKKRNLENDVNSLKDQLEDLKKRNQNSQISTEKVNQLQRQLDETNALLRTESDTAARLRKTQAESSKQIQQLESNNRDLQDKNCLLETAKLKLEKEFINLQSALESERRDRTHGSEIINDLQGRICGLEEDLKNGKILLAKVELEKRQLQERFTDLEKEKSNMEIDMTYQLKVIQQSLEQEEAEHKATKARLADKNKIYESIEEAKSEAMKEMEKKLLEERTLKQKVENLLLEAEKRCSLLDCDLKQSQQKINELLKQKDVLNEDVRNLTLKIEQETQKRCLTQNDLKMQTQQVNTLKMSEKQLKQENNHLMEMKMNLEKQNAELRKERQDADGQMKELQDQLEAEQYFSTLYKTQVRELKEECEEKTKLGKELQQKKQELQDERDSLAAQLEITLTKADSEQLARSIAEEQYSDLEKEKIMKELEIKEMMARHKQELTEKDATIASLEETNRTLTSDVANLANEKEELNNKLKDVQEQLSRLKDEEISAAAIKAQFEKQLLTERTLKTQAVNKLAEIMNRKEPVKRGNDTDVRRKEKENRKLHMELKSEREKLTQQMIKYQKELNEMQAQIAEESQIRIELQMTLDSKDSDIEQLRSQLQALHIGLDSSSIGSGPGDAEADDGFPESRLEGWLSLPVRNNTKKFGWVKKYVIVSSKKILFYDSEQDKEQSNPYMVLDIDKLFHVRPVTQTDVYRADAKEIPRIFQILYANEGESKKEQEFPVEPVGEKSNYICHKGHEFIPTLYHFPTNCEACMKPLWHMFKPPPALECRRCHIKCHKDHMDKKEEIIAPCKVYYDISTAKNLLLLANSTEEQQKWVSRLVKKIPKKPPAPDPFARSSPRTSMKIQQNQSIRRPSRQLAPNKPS

Work on `COc1cc(C(=O)NCC2=CCC3NC(=O)NC3=C2)ccc1-c1cn[nH]c1` (stereo unspecified) yielded an IC50 of 662 nM.

Reference: ChEMBL document CHEMBL3886981, “Phenylpyrazole derivatives as potent ROCK1 and ROCK2 inhibitors” (2016)
